Reference: US20020051978A1, “Methods and compositions for the identification, assessment, prevention and therapy of human cancers” (priority 2000, published 2002)
Where a name gives a salt, the structure may show the parent alone.

Tested on: 60 cancer cell lines (NCI 60 cancer cell line series)
Experiment: NCI-DTP in vitro cancer screen, sulforhodamine B (SRB) growth inhibition, 48 hour exposure
Type: cell-based, human
Set-up: key to sensitivity class Ovarian OVCAR-8 CL6005 / sensitivity class Ovarian SK-OV-3 CL6011 / sensitivity class Prostate DU-145 CL11003 / sensitivity class NSCLC NCI-H522 CL1003 / sensitivity class Ovarian IGROV1 CL6010 / sensitivity class Ovarian OVCAR-4 CL6002 / sensitivity class Prostate PC-3(I) CL11001 / sensitivity class Renal A498 CL9013 / sensitivity class Renal SN12C CL9008: sensitivity class: 1 = Low, 2 = Medium, 3 = High
Summary of the method: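 Sixty NCI-DTP cancer lines plated at line-specific densities, dosed on day 1 in duplicate with 5 concentrations at ten-fold intervals. After 48 h exposure, cell mass read by SRB staining; GI50 (50% growth inhibition) taken from dose-response curves and expressed as -log GI50.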

CC[C@]1(O)C[C@H]2CN(CCc3c([nH]c4ccccc34)[C@@](C(=O)OC)(c3cc4c(cc3OC)N(C=O)[C@H]3[C@@](O)(C(=O)OC)[C@H](OC(C)=O)[C@]5(CC)C=CCN6CC[C@]43[C@@H]65)C2)C1 [Vincristine sulfate]
classification of cell line as Low(1), Medium(2) or High(3) sensitivity to compound (Breast BT-549 (CL5013)): 2
classification of cell line as Low(1), Medium(2) or High(3) sensitivity to compound (Breast HS-578T CL5006): 2
classification of cell line as Low(1), Medium(2) or High(3) sensitivity to compound (Breast MCF7(I) (CL5001)): 2
classification of cell line as Low(1), Medium(2) or High(3) sensitivity to compound (Breast MCF7/ADRr (CL5002)): 2
classification of cell line as Low(1), Medium(2) or High(3) sensitivity to compound (Breast MDA-MB-231 CL5005): 2
classification of cell line as Low(1), Medium(2) or High(3) sensitivity to compound (Breast MDA-MB-435 (CL5011)): 2
classification of cell line as Low(1), Medium(2) or High(3) sensitivity to compound (Breast MDA-N CL5012): 1
classification of cell line as Low(1), Medium(2) or High(3) sensitivity to compound (Breast T-47D (CL5014)): 2
classification of cell line as Low(1), Medium(2) or High(3) sensitivity to compound (CNS SF-268 CL12014): 3
classification of cell line as Low(1), Medium(2) or High(3) sensitivity to compound (CNS SF-295 CL12015): 3
classification of cell line as Low(1), Medium(2) or High(3) sensitivity to compound (CNS SF-539 CL12016): 3
classification of cell line as Low(1), Medium(2) or High(3) sensitivity to compound (CNS SNB-19 (CL12002)): 2
classification of cell line as Low(1), Medium(2) or High(3) sensitivity to compound (CNS SNB-75(I) CL12005): 2
classification of cell line as Low(1), Medium(2) or High(3) sensitivity to compound (CNS U251(I) CL12009): 2
classification of cell line as Low(1), Medium(2) or High(3) sensitivity to compound (Colon COLO-250 CL4010): 2
classification of cell line as Low(1), Medium(2) or High(3) sensitivity to compound (Colon HCC-2998 (CL4002)): 2
classification of cell line as Low(1), Medium(2) or High(3) sensitivity to compound (Colon HCT-15 CL4015): 2
classification of cell line as Low(1), Medium(2) or High(3) sensitivity to compound (Colon HCT-116 (CL4003)): 2
classification of cell line as Low(1), Medium(2) or High(3) sensitivity to compound (Colon HT29(I) CL4001): 3
classification of cell line as Low(1), Medium(2) or High(3) sensitivity to compound (Colon KM12 (CL4017)): 3
classification of cell line as Low(1), Medium(2) or High(3) sensitivity to compound (Colon SW-620 (CL4009)): 3
classification of cell line as Low(1), Medium(2) or High(3) sensitivity to compound (Leukemia CCRF-CEM(I) (CL7003)): 3
classification of cell line as Low(1), Medium(2) or High(3) sensitivity to compound (Leukemia HL-60(I) (CL7008)): 3
classification of cell line as Low(1), Medium(2) or High(3) sensitivity to compound (Leukemia K562(I) CL7005): 3
classification of cell line as Low(1), Medium(2) or High(3) sensitivity to compound (Leukemia MOLT-4 (CL7006)): 3
classification of cell line as Low(1), Medium(2) or High(3) sensitivity to compound (Leukemia RPMI-8226(I) (CL7010)): 3
classification of cell line as Low(1), Medium(2) or High(3) sensitivity to compound (Leukemia SR CL7019): 3
classification of cell line as Low(1), Medium(2) or High(3) sensitivity to compound (Melanoma LOX IMVI CL10001): 3
classification of cell line as Low(1), Medium(2) or High(3) sensitivity to compound (Melanoma M14 (CL10014)): 2
classification of cell line as Low(1), Medium(2) or High(3) sensitivity to compound (Melanoma MALME-3M CL10002): 2
classification of cell line as Low(1), Medium(2) or High(3) sensitivity to compound (Melanoma SK-MEL-2 (CL10005)): 2
classification of cell line as Low(1), Medium(2) or High(3) sensitivity to compound (Melanoma SK-MEL-5 (CL10007)): 3
classification of cell line as Low(1), Medium(2) or High(3) sensitivity to compound (Melanoma SK-MEL-28 (CL10008)): 1
classification of cell line as Low(1), Medium(2) or High(3) sensitivity to compound (Melanoma UACC-62 (CL10020)): 2
classification of cell line as Low(1), Medium(2) or High(3) sensitivity to compound (Melanoma UACC-257 (CL10021)): 2
classification of cell line as Low(1), Medium(2) or High(3) sensitivity to compound (NSCLC A549/ATCC (CL1004)): 2
classification of cell line as Low(1), Medium(2) or High(3) sensitivity to compound (NSCLC EKVX (CL1008)): 1
classification of cell line as Low(1), Medium(2) or High(3) sensitivity to compound (NSCLC HOP-62 (CL1026)): 2
classification of cell line as Low(1), Medium(2) or High(3) sensitivity to compound (NSCLC HOP-92 (CL1029)): 2
classification of cell line as Low(1), Medium(2) or High(3) sensitivity to compound (NSCLC NCI-H226 CL1013): 2
sensitivity class NSCLC NCI-H23(I) CL1001 (cell line NSCLC NCI-H23(I), CL1001): 3
sensitivity class NSCLC NCI-H332M CL1017 (cell line NSCLC NCI-H332M, CL1017): 2
sensitivity class NSCLC NCI-H460 CL1021 (cell line NSCLC NCI-H460, CL1021): 3
sensitivity class NSCLC NCI-H522 CL1003 (cell line NSCLC NCI-H522, CL1003): 3
sensitivity class Ovarian IGROV1 CL6010 (cell line Ovarian IGROV1, CL6010): 3
sensitivity class Ovarian OVCAR-3 CL6001 (cell line Ovarian OVCAR-3, CL6001): 3
sensitivity class Ovarian OVCAR-4 CL6002 (cell line Ovarian OVCAR-4, CL6002): 2
sensitivity class Ovarian OVCAR-5 CL6003 (cell line Ovarian OVCAR-5, CL6003): 1
sensitivity class Ovarian OVCAR-8 CL6005 (cell line Ovarian OVCAR-8, CL6005): 3
sensitivity class Ovarian SK-OV-3 CL6011 (cell line Ovarian SK-OV-3, CL6011): 2
sensitivity class Prostate DU-145 CL11003 (cell line Prostate DU-145, CL11003): 2
sensitivity class Prostate PC-3(I) CL11001 (cell line Prostate PC-3(I), CL11001): 2
sensitivity class Renal 786-O CL9018 (cell line Renal 786-O, CL9018): 2
sensitivity class Renal A498 CL9013 (cell line Renal A498, CL9013): 3
sensitivity class Renal ACHN CL9023 (cell line Renal ACHN, CL9023): 2
sensitivity class Renal CAKI-1 CL9015 (cell line Renal CAKI-1, CL9015): 2
sensitivity class Renal RXF-393 CL9016 (cell line Renal RXF-393, CL9016): 2
sensitivity class Renal SN12C CL9008 (cell line Renal SN12C, CL9008): 2
sensitivity class Renal TK10 CL9024 (cell line Renal TK10, CL9024): 1
sensitivity class Renal UO-31 CL9004 (cell line Renal UO-31, CL9004): 1
